Test: Breath analysis by SIFT-MS before and after ingestion of 75 g glucose in healthy subjects
Format: in vivo, human
Conditions: for Cmax (maximum levels) in breath, interquartile range (IQR) / Cmax (maximum levels) in breath, median (M): breath sampled every 5 minutes for 90 minutes
[1] = 10 healthy subjects fasted overnight, after 75 grams of glucose in 300 ml of water

Method: A total of 10 healthy subjects were recruited and instructed to fast overnight and avoid drinking alcohol the day before the experiment. Breath was analysed using selected ion flow tube mass spectrometry (SIFT-MS). […] Afterwards, 75 grams of glucose dissolved in 300 ml of water were ingested, and 3 consecutive breath samples were provided every 5 minutes for 90 minutes. Measured compounds were expressed as part per billion volume/volume (PPB) and plotted as a function of time. Ambient samples were collected before and after the procedure.
The subjects were asked to fast overnight and not drink alcohol the day before the experiment.
A total of 75 g of glucose from Bulk (https://www.bulk.com/uk/dextrose.html?view=ppc&pid=2378&gclid=CjwKCAjw-vmkBhBMEiwAlrMeF2SOAMhqgNq65EV8YC2XWu63e4ByfJckgwv5jKZfzCA6BbIB24sLSBoC—kQAvD_BwE) was weighted in a glass and 300 ml of water was added and mixed until the full amount was dissolved. A total of 6 blank samples were collected and analysed before and after the procedure. The subjects provided breath samples before and every 5 minutes over 90 minutes after glucose ingestion. Each timepoint was represented by a 15 second breath exhalation consecutively repeated 3 times ed o and averaged for every timepoint. Breath samples were directly sampled for Selected-ion flow-tube mass spectrometry (SIFT-MS). Subjects exhaled into a single use Mouthpiece and Reservoir Tube (PO007257 Imspex) that were replaced for each timepoint collection.
Scans were performed in batch mode; data were collected in single ion mode (SIM). SIM scan was 50 secs long.

| Cmax (maximum levels) in breath, interquartile range (IQR) [1] | Cmax (maximum levels) in breath, median (M) [1] | Tmax (time to maximum level) in breath, interquartile range (IQR) [1] | Tmax (time to maximum level) in breath, median (M) [1] | Time for breath levels to return to baseline (after glucose administration, all investigated subjects) | SMILES | Return of breath levels to baseline (in words) (after glucose administration, investigated timeframe 90 minutes) |
| --- | --- | --- | --- | --- | --- | --- |
| 303-593 PPB | 400 PPB |  |  |  | CCO [ethanol] | returned to baseline at the end of the investigated timeframe for all but 1 subject |
| 4-8.8 PPB | 7 PPB | 10 to 15 min | 10 min | ≤ 50 min | CC(=O)C(C)O (centres unmarked) [acetoin] |  |

From patent US20260259232A1, “A METHOD” (OWLSTONE MEDICAL LIMITED, priority 2022, published 2026)
